Values after ≈ are worked out from the molar mass of the structure shown.
What was measured:
[1] = tested on: Staphylococcus epidermidis; assay: Antibacterial activity against methicillin-sensitive Staphylococcus epidermidis ATCC 12228 after 18 hrs by CLSI broth microdilution method; type: functional; settings: ATCC 12228, 18 h
[2] = tested on: Acinetobacter calcoaceticus; assay: Antibacterial activity against Acinetobacter calcoaceticus ATCC 19606 after 18 hrs by CLSI broth microdilution method; type: functional; settings: ATCC 19606, 18 h
[3] = tested on: Proteus mirabilis; assay: Antibacterial activity against Proteus mirabilis 12-6 after 18 hrs by CLSI broth microdilution method; type: functional; settings: 12-6, 18 h
[4] = Cytotoxicity against HEK293T cells assessed as reduction in cell viability after 48 hrs by MTS assay; type: cell-based, HEK-293T; settings: human
[5] = tested on: Escherichia coli; assay: Antibacterial activity against extended-spectrum beta-lactamase harboring Escherichia coli CDC1001728 after 18 hrs by CLSI broth microdilution method; type: functional; settings: CDC1001728, 18 h
[6] = tested on: Klebsiella pneumoniae; assay: Antibacterial activity against new delhi metallo-beta-lactamase-1 harboring Klebsiella pneumoniae 13-1 after 18 hrs by CLSI broth microdilution method; type: functional; settings: 13-1, 18 h
[7] = tested on: Enterobacter cloacae; assay: Antibacterial activity against new delhi metallo-beta-lactamase-1 harboring Enterobacter cloacae CDC1000654 after 18 hrs by CLSI broth microdilution method; type: functional; settings: CDC1000654, 18 h
[8] = tested on: Enterobacter cloacae; assay: Antibacterial activity against new delhi metallo-beta-lactamase-1 harboring Enterobacter cloacae 13-1 after 18 hrs by CLSI broth microdilution method; type: functional; settings: 13-1, 18 h
[9] = tested on: Enterococcus faecalis; assay: Antibacterial activity against vancomycin-resistant Enterococcus faecalis ATCC 51299 after 18 hrs by CLSI broth microdilution method; type: functional; settings: ATCC 51299, 18 h
[10] = tested on: Klebsiella pneumoniae; assay: Antibacterial activity against extended-spectrum beta-lactamase deficient Klebsiella pneumoniae 7 after 18 hrs by CLSI broth microdilution method; type: functional; settings: Klebsiella pneumoniae, 7, 18 h
[11] = tested on: Klebsiella aerogenes; assay: Antibacterial activity against Enterobacter aerogenes ATCC 13048 after 18 hrs by CLSI broth microdilution method; type: functional; settings: ATCC 13048, 18 h
[12] = tested on: Proteus vulgaris; assay: Antibacterial activity against Proteus vulgaris ATCC 29905 after 18 hrs by CLSI broth microdilution method; type: functional; settings: ATCC 29905, 18 h
[13] = tested on: Stenotrophomonas maltophilia; assay: Antibacterial activity against Stenotrophomonas maltophilia ATCC 13636 after 18 hrs by CLSI broth microdilution method; type: functional; settings: ATCC 13636, 18 h
[14] = tested on: Staphylococcus aureus; assay: Antibacterial activity against methicillin-resistant Staphylococcus aureus ATCC 33591 infected in ICR mouse assessed as mouse survival at 4 mg/kg, iv administered at 1 and 5 hrs post infection and measured on day 7 day post last dose (reference value: 0%); type: functional; settings: ATCC 33591, iv

Q: Which MIC [1] does the source give for `CN(C)C(=N)c1ccc2cc(-c3ccc(-c4cc5ccc(C(=N)N(C)C)cc5[nH]4)cc3)[nH]c2c1` here?
A: 0.125 µg/mL (≈ 0.279 µM)

Q: What about the MIC [2] of the same compound?
A: 8 µg/mL (≈ 17.8 µM)

Q: What about the MIC [3] of the same compound?
A: 8 µg/mL (≈ 17.8 µM)

Q: What about the CC50 at 48 h [4] of the same compound?
A: 4.13 µg/mL (≈ 9.21 µM)

Q: What about the MIC [5] of the same compound?
A: 2 µg/mL (≈ 4.46 µM)

Q: What about the MIC [6] of the same compound?
A: 4 µg/mL (≈ 8.92 µM)

Q: What about the MIC [7] of the same compound?
A: 4 µg/mL (≈ 8.92 µM)

Q: And the MIC [8]?
A: 4 µg/mL (≈ 8.92 µM)

Q: What about the MIC [9] of the same compound?
A: 1 µg/mL (≈ 2.23 µM)

Q: What about the MIC [10] of the same compound?
A: 2 µg/mL (≈ 4.46 µM)

Q: What about the MIC [11] of the same compound?
A: 2 µg/mL (≈ 4.46 µM)

Q: And the MIC [12]?
A: 4 µg/mL (≈ 8.92 µM)

Q: And the MIC [13]?
A: 8 µg/mL (≈ 17.8 µM)

Q: What about the survival at 4 mg/kg [14] of the same compound?
A: 90%
